In experiment [1] the target is T1, GPR27-V2 (Homo sapiens, UniProt P30518+Q9NS67). Briefly: Agonist activity at CLuc-tagged human GPR27-V2 expressed in HEK293 cells incubated for 10 mins by beta-arrestin 2 recruitment based firefly luciferase complementation assay.
The target of experiment [2] is T1, GPR27-V2. As to the kind of experiment: Agonist activity at CLuc-tagged human GPR27-V2 expressed in HEK293 cells incubated overnight by beta-arrestin 2 recruitment based firefly luciferase complementation assay. A general note: Activated receptors often draw arrestin, which recruitment assays turn into a signal.
Experiment [3] has as its target Probable G-protein coupled receptor 27 (Homo sapiens, UniProt Q9NS67). Briefly: Agonist activity at CLuc-tagged human GPR27 expressed in HEK293 cells incubated for 10 mins by beta-arrestin 2 recruitment based firefly luciferase complementation assay.

As a reminder, the EC50 is the concentration needed to bring the measured effect to its halfway point. A high value points to lower potency in that assay.

T1 sequence (P30518 whole entry): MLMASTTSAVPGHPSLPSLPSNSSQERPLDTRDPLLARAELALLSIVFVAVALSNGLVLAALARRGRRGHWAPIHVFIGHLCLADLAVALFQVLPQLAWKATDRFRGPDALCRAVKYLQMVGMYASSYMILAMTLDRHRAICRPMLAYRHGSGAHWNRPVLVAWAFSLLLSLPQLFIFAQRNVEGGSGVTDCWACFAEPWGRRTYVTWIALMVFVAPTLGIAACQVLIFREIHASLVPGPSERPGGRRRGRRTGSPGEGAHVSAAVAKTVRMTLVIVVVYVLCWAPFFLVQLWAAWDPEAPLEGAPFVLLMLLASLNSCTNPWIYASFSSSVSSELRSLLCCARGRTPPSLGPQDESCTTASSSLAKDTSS
T1 sequence (Q9NS67 whole entry): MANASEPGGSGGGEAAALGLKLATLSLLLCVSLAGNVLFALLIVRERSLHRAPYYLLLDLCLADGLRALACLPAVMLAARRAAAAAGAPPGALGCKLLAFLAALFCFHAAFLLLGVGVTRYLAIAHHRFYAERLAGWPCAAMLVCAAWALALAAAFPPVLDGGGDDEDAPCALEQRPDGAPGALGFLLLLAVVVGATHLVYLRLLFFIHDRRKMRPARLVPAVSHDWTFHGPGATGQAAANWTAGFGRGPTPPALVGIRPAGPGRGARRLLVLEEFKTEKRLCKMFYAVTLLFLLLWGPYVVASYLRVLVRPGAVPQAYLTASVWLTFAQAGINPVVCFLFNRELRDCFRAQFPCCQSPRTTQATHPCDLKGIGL
Chain of Probable G-protein coupled receptor 27 (Q9NS67 whole entry): as above

As for `Cc1cc(NS(=O)(=O)c2ccc(NC(=O)c3ccc(Cl)cc3Cl)cc2)no1`, the EC50 on GPR27-V2 [1] was more than 100 µM.
On GPR27-V2 [1], `O=C(Nc1ccc(S(=O)(=O)Nc2cnc3ccccc3n2)cc1)c1ccc(Cl)cc1Cl` gave an EC50 of more than 100 µM.
In the case of `O=C(Nc1ccc(S(=O)(=O)Nc2ccccc2)cc1)c1ccc(Cl)cc1Cl`, the EC50 on GPR27-V2 [1] was 7.41 µM; on GPR27-V2 [2] it was 0.417 µM; in experiment [3], 6.61 µM.
On GPR27-V2 [2], `O=C(Nc1ccc(S(=O)(=O)Nc2nccs2)cc1)c1ccc(Cl)cc1Cl` had an EC50 of 0.661 µM.
At GPR27-V2 [1], `O=C(Nc1ccc(S(=O)(=O)O)cc1)c1ccc(Cl)cc1Cl` returned a concentration giving a half-maximal response (EC50) of more than 100 µM.
Consider `Cc1cc(Cl)c(C(=O)Nc2ccc(S(=O)(=O)Nc3ccccc3)cc2)cc1F`, for which the EC50 in experiment [3] was more than 31.6 µM.
Regarding `CN(C)S(=O)(=O)c1ccc(NC(=O)c2ccc(Cl)cc2Cl)cc1`, the EC50 at GPR27-V2 [1] was more than 100 µM.
Consider `O=C(Nc1ccc(S(=O)(=O)Nc2ccccc2)cc1)c1ccc(F)cc1F`, for which the half-maximal effective concentration (EC50) at GPR27-V2 [1] is 3.89 µM; in experiment [3] it was 0.447 µM.
For the compound `O=C(Nc1ccc(S(=O)(=O)Nc2ccccc2)cc1)c1ccc(C(F)(F)F)cc1Cl`, the concentration for a half-maximal effect (EC50) was 3.89 µM on GPR27-V2 [1] and 6.76 µM in experiment [3].
The compound `Cc1cc(Br)c(F)cc1C(=O)Nc1ccc(S(=O)(=O)Nc2ccccc2)cc1` had an EC50 in experiment [3] of 0.562 µM.
As for `Cc1nnc(NS(=O)(=O)c2ccc(NC(=O)c3ccc(Cl)cc3Cl)cc2)s1`, the EC50 on GPR27-V2 [1] was more than 100 µM.
`CC(=O)NS(=O)(=O)c1ccc(NC(=O)c2ccc(Cl)cc2Cl)cc1`: on GPR27-V2 [1], the EC50 was more than 100 µM.
Take `O=C(Nc1ccc(S(=O)(=O)Nc2ccccc2)cc1)c1ccc(Br)cc1Br`: the EC50 on GPR27-V2 [1] was 3.24 µM; in experiment [3] it was 1.23 µM.
On GPR27-V2 [1], `CS(=O)(=O)c1ccc(NC(=O)c2ccc(Cl)cc2Cl)cc1` had an EC50 of 38 µM.
Compound `N#Cc1cc(Cl)c(C(=O)Nc2ccc(S(=O)(=O)Nc3ccccc3)cc2)c(Cl)c1` displayed an EC50 in experiment [3] of more than 31.6 µM.
Regarding `O=C(Nc1ccc(S(=O)(=O)Nc2ccccc2)cc1)c1ccc(C(F)(F)F)cc1C(F)(F)F`, the EC50 on GPR27-V2 [1] is 0.55 µM; in experiment [3], more than 31.6 µM.
As for `Cc1cc(Cl)c(Cl)cc1C(=O)Nc1ccc(S(=O)(=O)Nc2ccccc2)cc1`, a half-maximal response in experiment [3] (EC50) required 0.263 µM.
For `COc1cc(Cl)ccc1C(=O)Nc1ccc(S(=O)(=O)Nc2ccccc2)cc1`, the half-maximal effective concentration (EC50) at GPR27-V2 [1] was 0.977 µM; in experiment [3], 0.204 µM.
In turn, `CNS(=O)(=O)c1ccc(NC(=O)c2ccc(Br)cc2Br)cc1` gave an EC50 on GPR27-V2 [1] of more than 100 µM.
Still for that read-out and setting: under `Cc1onc(NS(=O)(=O)c2ccc(NC(=O)c3ccc(Cl)cc3Cl)cc2)c1C` stands more than 100 µM.
Consider `O=C(Nc1ccc(S(=O)(=O)Nc2ccccc2)cc1)c1cc(Cl)c(Cl)cc1Cl`, for which the response in experiment [3] was half-maximal at 0.589 µM (EC50).
On to `N#Cc1ccc(C(=O)Nc2ccc(S(=O)(=O)Nc3ccccc3)cc2)c(Cl)c1`, for which the concentration giving a half-maximal response (EC50) was 5.89 µM on GPR27-V2 [1] and 0.977 µM in experiment [3].
Take `Cc1cc(C(=O)Nc2ccc(S(=O)(=O)Nc3ccccc3)cc2)c(Cl)cc1Cl`: the concentration giving a half-maximal response (EC50) in experiment [3] was 0.372 µM.
The compound `NS(=O)(=O)c1ccc(NC(=O)c2ccc(Br)cc2Br)cc1` registered an EC50 on GPR27-V2 [1] of more than 100 µM.
Consider `O=C(Nc1ccc(S(=O)(=O)Nc2ccccc2)cc1)c1ccc(Cl)cc1OC(F)(F)F`, for which the EC50 at GPR27-V2 [1] was 0.195 µM; in experiment [3] it was more than 31.6 µM.
`O=C(Nc1ccc(S(=O)(=O)Nc2ccccc2)cc1)c1cc2ccccc2cc1Cl` had an EC50 in experiment [3] of 0.955 µM.
As to `O=C(Nc1ccc(S(=O)(=O)Nc2ccccc2)cc1)c1ccc(C(F)(F)F)cc1Br`, the values for the EC50 (at GPR27-V2 [1]; in experiment [3]) were 6.92 µM and 0.245 µM, respectively.
`COc1ccc(C(=O)Nc2ccc(S(=O)(=O)Nc3ccccc3)cc2)c(Cl)c1`: the values for the EC50 (on GPR27-V2 [1]; in experiment [3]) were 8.13 µM and more than 31.6 µM, respectively.
Turning to `O=C(Nc1ccc(S(=O)(=O)Nc2ccccc2)cc1)c1c(Cl)cc(Cl)cc1Cl`, in experiment [3], the EC50 was more than 31.6 µM.
Same read-out and setting: the figure for `Cc1cc(C(=O)Nc2ccc(S(=O)(=O)Nc3ccccc3)cc2)c(F)cc1Br` is 2.14 µM.
Still for that read-out and setting: the figure for `O=C(Nc1ccc(S(=O)(=O)Nc2ccccc2)cc1)c1ccc(Cl)c(Cl)c1Cl` is 0.631 µM.
On to `COc1ccc(C(=O)Nc2ccc(S(=O)(=O)Nc3ccccc3)cc2)c(C)c1`, for which the EC50 was more than 100 µM at GPR27-V2 [1] and more than 31.6 µM in experiment [3].
Turning to `O=C(/C=C/c1ccc(Cl)cc1Cl)Nc1ccc(S(=O)(=O)Nc2ccccc2)cc1`, the EC50 on GPR27-V2 [1] was more than 100 µM.
`Cc1cc(C(=O)Nc2ccc(S(=O)(=O)Nc3ccccc3)cc2)c(C)cc1Br` gave an EC50 in experiment [3] of 0.126 µM.
For the compound `Cc1cc(C(=O)Nc2ccc(S(=O)(=O)Nc3ccccc3)cc2)c(C)cc1Cl`, a half-maximal response in experiment [3] (EC50) required 0.275 µM. Compared with the last compound, the EC50 is about 2.2-fold higher.
Still for that read-out and setting: under `O=C(Nc1ccc(S(=O)(=O)Nc2ccccc2)cc1)c1cc(F)c(Cl)cc1Cl` stands 0.38 µM; under `Cc1cc(Cl)c(C(=O)Nc2ccc(S(=O)(=O)Nc3ccccc3)cc2)cc1Cl`, 0.363 µM.

Values taken from ChEMBL document CHEMBL5375984, “Development of Ligands for the Super Conserved Orphan G Protein-Coupled Receptor GPR27 with Improved Efficacy and Potency” (J Med Chem, 2023).
